Source: patent US9872844B2, “Compositions and methods for the reduction or prevention of hepatic steatosis” (priority 2014, dated 2018)

What was measured:
liver triglycerides = details: Example 3; HFD mice, six weeks; therapeutic metformin alone 1.5 g/kg diet
From the text: (§1) Chronic high fat diet was used in C57Bl/6 mice as an experimental model of hepatic steatosis. Male C57/BL6 mice were either maintained on standard low-fat diet (control; LFD; 10% energy from fat) or placed on a high fat (HFD; 60% energy from fat, Research Diets #D12492, Research Diets, Inc, New Brunswick, N.J.) at six weeks of age to induce obesity and fatty infiltration of the liver. […] Animals were then randomized to treatments for an additional six weeks, with 10 animals per group, as specified in the following examples.
(§2) In this study, the effects of metformin alone (therapeutic dose) vs. combination therapy with sub-therapeutic amounts of metformin and leucine on liver weight and hepatic lipid accumulation were assessed. Following induction of hepatic steatosis as described in Example 1, animals were treated for six weeks according to the following treatment groups as depicted in Table 22:

hepatic steatosis [1] = experiment: Liver weight after six weeks treatment in chronic high fat diet mice; type: in vivo, C57Bl/6 mice; details: therapeutic metformin alone 1.5 g/kg diet
From the text: as §1
(§3) In this study, the effects of metformin alone (therapeutic dose), subtherapeutic metformin alone, subtherapeutic leucine, and various combinations of leucine, metformin, and resveratrol on liver weight and hepatic lipid accumulation were assessed. The 1.5 g/kg diet of metformin corresponds to a therapeutically effective dose of metformin in humans. […] Likewise, the 24 g/kg dose of leucine represents a sub-therapeutic dose that was predicted to exert no significant independent effects on liver mass or hepatic steatosis. Following induction of hepatic steatosis as described in Example 1, animals were treated according to the following treatment groups as depicted in Table 21:
as §2

hepatic steatosis [2] = experiment: Prophylactic treatment concurrent with high fat diet: liver mass and hepatic lipid accumulation; type: in vivo, C57Bl/6 mice; details: treatment and HFD started same day, six weeks, metformin alone 1.5 g/kg diet, with or without resveratrol 12.5 mg/kg diet
Experimental: In this study, the prophylactic effects of metformin alone, and various combinations of metformin, leucine, and resveratrol on liver mass and hepatic steatosis are assessed. C57Bl/6 mice are assigned to the following experimental groups as depicted in Table 25: Drug treatments and high fat diet feeding (as described in Example 1) are initiated on the same day and are carried out for six weeks. The effects of the treatments and diet on liver mass and hepatic lipid accumulation are assessed as described in the preceding examples. […] In this study, the prophylactic effects of metformin alone, and various combinations of metformin, HMB, and resveratrol on liver mass and hepatic steatosis are assessed. C57Bl/6 mice are assigned to the following experimental groups as depicted in Table 26: Drug treatments and high fat diet feeding (as described in Example 1) are initiated on the same day and are carried out for six weeks. The effects of the treatments and diet on liver mass and hepatic lipid accumulation are assessed as described in the preceding examples. […] In this study, the prophylactic effects of sub-therapeutic leucine alone, and co-administration of leucine and the PDE5-specific inhibitor icariin on liver mass and hepatic steatosis are assessed. […] The effects of the treatments and diet on liver mass and hepatic lipid accumulation are assessed as described in the preceding examples.

hepatic steatosis [3] = experiment: Histological analysis of hepatic lipid accumulation in chronic high fat diet mice; type: in vivo, C57Bl/6 mice; details: HFD mice, six weeks
From the text: as §1, §3, §2

[4] = tested on: hepatic lipid accumulation; details: 25 mg icariin/kg diet; corresponding to 4 mg/kg body weight/day; previous published studies; cited from earlier work

Molecule	effect on liver triglycerides (liver triglycerides)	effect on liver weight (hepatic steatosis [1]; Example 2, HFD mice, leucine 24 g/kg diet, resveratrol 12.5 mg/kg diet)	effect on liver weight (hepatic steatosis [1]; Example 3, HFD mice, p<0.02 vs. HFD, n.s. compared to LFD)	effect on liver weight (hepatic steatosis [1]; Example 4, HFD mice, p<0.03)	HFD-induced increase in liver mass and hepatic lipid accumulation (prophylactic) (hepatic steatosis [2]; Example 6, leucine 24 g/kg diet + metformin 0.15-0.50 g/kg diet)	HFD-induced increase in liver mass and hepatic lipid accumulation (prophylactic) (hepatic steatosis [2]; Example 7, HMB (CaHMB, 2 g/kg diet) + metformin 0.15-0.50 g/kg diet)	hepatic steatosis (histological analysis) (hepatic steatosis [3]; Example 2, metformin alone 1.5 g/kg diet, leucine 24 g/kg diet, resveratrol 12.5 mg/kg diet, combination with sub-therapeutic metformin)	hepatic steatosis (histological analysis) (hepatic steatosis [3]; Example 3, single agents at 'therapeutic dosages' (metformin 1.5 g/kg diet))	hepatic steatosis (histological analysis) (hepatic steatosis [3]; Example 4, therapeutic metformin alone 1.5 g/kg diet)	effect on liver mass or hepatic lipid accumulation [4]
metformin	partially reversed the effect of high fat diet on liver triglycerides	partially reverse the effect of high fat diet on liver weight	reversed the effect of high fat diet on liver weight back to control levels	reversed the effect of high fat diet on liver weight back to control levels	attenuates the HFD-induced increase in liver mass and hepatic lipid accumulation	attenuates the HFD-induced increase in liver mass and hepatic lipid accumulation	partial reversal of the effects of HFD on hepatic steatosis	partially reversed hepatic steatosis	partially reversed hepatic steatosis	
COc1ccc(-c2oc3c(CC=C(C)C)c(O[C@@H]4O[C@H](CO)[C@@H](O)[C@H](O)[C@H]4O)cc(O)c3c(=O)c2O[C@@H]2O[C@@H](C)[C@H](O)[C@@H](O)[C@H]2O)cc1 [icariin]										no effect
